Test results: US20250333406A1, “SULFONYL CYCLIC DERIVATIVES, AND COMPOSITIONS AND METHODS THEREOF” (Lysoway Therapeutics, Inc., priority 2023, published 2025)

These compounds were tested on TFEB (assay: TFEB Nuclear Translocation Assay). Conditions: read-out: EC50 of TFEB activation.
Format: cell-based

`O=S(=O)(c1ccn(S(=O)(=O)C2CC2)c1)n1nc(N2CCN(c3ncc(F)cn3)CC23CC3)c2c(F)cc(F)cc21` [Compound 174, 1-((1-(cyclopropylsulfonyl)-1H-pyrrol-3-yl)sulfonyl)-4,6-difluoro-3-(7-(5-fluoropyrimidin-2-yl)-4,7-diazaspiro [2.5]octan-4-yl)-1H-indazole] and `CN(C)S(=O)(=O)n1ccc(S(=O)(=O)n2nc(N3CCN(c4ncc(F)cn4)CC34CC4)c3c(Cl)cc(F)cc32)c1` [Compound 170, 3-[4-chloro-6-fluoro-3-[7-(5-fluoropyrimidin-2-yl)-4,7-diazaspiro [2.5]octan-4-yl]indazol-1-yl]sulfonyl-N, N-dimethyl-pyrrole-1-sulfonamide] cannot be ordered by EC50: ≤ 1000 nM for the first, ≤ 1000 nM for the second.

`CC(C)S(=O)(=O)c1nc(S(=O)(=O)n2nc(N3CCN(c4ncc(F)cn4)CC34CC4)c3c(F)ccc(F)c32)cs1` [Compound 195, 4-((4,7-difluoro-3-(7-(5-fluoropyrimidin-2-yl)-4,7-diazaspiro 12.51 octan-4-yl)-1H-indazol-1-yl)sulfonyl)-2-(isopropylsulfonyl) thiazole] and `CC(C)S(=O)(=O)c1ccc(S(=O)(=O)n2nc(N3CCN(c4ncc(F)cn4)CC34CC4)c3c(Cl)cc(F)cc32)s1` [Compound 38, 4-chloro-6-fluoro-3-(7-(5-fluoropyrimidin-2-yl)-4,7-diazaspiro [2.5]octan-4-yl)-1-((5-(isopropylsulfonyl)thiophen-2-yl)sulfonyl)-1H-indazole] cannot be ordered by EC50: 1000 to 10000 nM for the first, ≤ 1000 nM for the second.

`CC(C)(C)c1ccc(S(=O)(=O)n2nc(N3CCN(c4ncc(F)cn4)CC34CC4)c3c(Cl)cccc32)cc1` [Compound 94, 1-((4-(tert-butyl)phenyl)sulfonyl)-4-chloro-3-(7-(5-fluoropyrimidin-2-yl)-4,7-diazaspiro [2.5]octan-4-yl)-1H-indazole] and `CC(F)(F)c1ccc(S(=O)(=O)n2nc(N3CCN(c4ncc(F)cn4)CC34CC4)c3c(Cl)cccc32)cc1` [Compound 116, 4-chloro-1-[4-(1,1-difluoroethyl)phenyl]sulfonyl-3-[7-(5-fluoropyrimidin-2-yl)-4,7-diazaspiro[2.5]octan-4-yl]indazole] cannot be ordered by EC50: ≤ 1000 nM for the first, ≤ 1000 nM for the second.

`CC(F)(F)c1ccc(S(=O)(=O)n2nc(N3CCN(c4ncc(F)cn4)CC3C(C)(C)C)c3c(Cl)cccc32)cc1` (stereo not drawn) [Compound 108, 3-[2-tert-butyl-4-(5-fluoropyrimidin-2-yl)piperazin-1-yl]-4-chloro-1-[4-(1,1-difluoroethyl)phenyl]sulfonyl-indazole] and `CC(C)C(F)(F)c1ccc(S(=O)(=O)n2nc(N3CCN(c4ncc(F)cn4)CC34CC4)c3c(Cl)cccc32)cc1` [Compound 90, 4-chloro-1-[4-(1,1-difluoro-2-methyl-propyl)phenyl]sulfonyl-3-[7-(5-fluoropyrimidin-2-yl)-4,7-diazaspiro [2.5]octan-4-yl]indazole] cannot be ordered by EC50: ≤ 1000 nM for the first, ≤ 1000 nM for the second.

`CC(C)S(=O)(=O)c1ccc(S(=O)(=O)n2nc(N3CCCCC3C3CC3)c3c(Cl)cccc32)cc1` (stereo not drawn) [Compound 63, 4-chloro-3-(2-cyclopropyl-1-piperidyl)-1-(4-isopropylsulfonylphenyl) sulfonyl-indazole] and `CC(C)S(=O)(=O)c1ccc(S(=O)(=O)n2nc(N3CCC[C@H]3C(F)(F)F)c3c(Cl)cccc32)cc1` (single isomer, unassigned) [Compound 110] cannot be ordered by EC50: ≤ 1000 nM for the first, ≤ 1000 nM for the second.

`O=S(=O)(c1ccc(C(F)F)cc1)n1nc(N2CCN(c3ncc(F)cn3)CC23CC3)c2c(Cl)cccc21` [Compound 78, 4-chloro-1-[4-(difluoromethyl)phenyl]sulfonyl-3-[7-(5-fluoropyrimidin-2-yl)-4,7-diazaspiro [2.5]octan-4-yl]indazole] and `CC(C)S(=O)(=O)c1ccc(S(=O)(=O)n2nc(N3CCN(c4ncc(F)cn4)CC34CC4)c3c(Cl)cc(F)cc32)cc1` [Compound 3, 4-chloro-6-fluoro-3-(7-(5-fluoropyrimidin-2-yl)-4,7-diazaspiro [2.5]octan-4-yl)-1-((4-(isopropylsulfonyl)phenyl)sulfonyl)-1H-indazole] cannot be ordered by EC50: ≤ 1000 nM for the first, ≤ 1000 nM for the second.

`CC(C)S(=O)(=O)c1ccc(S(=O)(=O)n2nc(N3CCC(Cl)=CC3C(F)(F)F)c3c(Cl)cccc32)cc1` (stereo not drawn) [Compound 79, 4-chloro-3-[4-chloro-6-(trifluoromethyl)-3,6-dihydro-2H-pyridin-1-yl]-1-(4-isopropylsulfonylphenyl) sulfonyl-indazole] and `CC(C)S(=O)(=O)c1ccc(S(=O)(=O)n2nc(N3CCC(OC(F)F)CC3C(F)(F)F)c3c(Cl)cccc32)cc1` (stereo not drawn) [Compound 86, 4-chloro-3-[4-(difluoromethoxy)-2-(trifluoromethyl)-1-piperidyl]-1-(4-isopropylsulfonylphenyl) sulfonyl-indazole] cannot be ordered by EC50: ≤ 1000 nM for the first, ≤ 1000 nM for the second.

`CC(C)S(=O)(=O)c1ccc(S(=O)(=O)n2nc(N3CCN(c4ncc(Cl)s4)CC34CC4)c3c(Cl)cccc32)s1` [Compound 46, 5-chloro-2-[4-[4-chloro-1-[(5-isopropylsulfonyl-2-thienyl)sulfonyl]indazol-3-yl]-4,7-diazaspiro [2.5]octan-7-yl]thiazole] and `CC(C)S(=O)(=O)c1ccc(S(=O)(=O)n2nc(N3CCC(F)CC34CC4)c3c(Cl)cccc32)s1` (stereo not drawn) [Compound 11, 4-chloro-3-(7-fluoro-4-azaspiro [2.5]octan-4-yl)-1-[(5-isopropylsulfonyl-2-thienyl)sulfonyl]indazole] cannot be ordered by EC50: ≤ 1000 nM for the first, ≤ 1000 nM for the second.

`CC(C)S(=O)(=O)c1ccc(S(=O)(=O)n2nc(N3CCN(c4ncc(Cl)cn4)CC3C3CC3)c3c(Cl)cccc32)s1` (stereo not drawn) [Compound 5, 4-chloro-3-[4-(5-chloropyrimidin-2-yl)-2-cyclopropyl-piperazin-1-yl]-1-[(5-isopropylsulfonyl-2-thienyl)sulfonyl]indazole] and `CC(C)S(=O)(=O)c1ccc(S(=O)(=O)n2nc(N3CCN(S(=O)(=O)C(F)(F)F)CC34CC4)c3c(Cl)cccc32)s1` [Compound 14, 4-chloro-1-[(5-isopropylsulfonyl-2-thienyl)sulfonyl]-3-[7-(trifluoromethylsulfonyl)-4,7-diazaspiro [2.5]octan-4-yl]indazole] cannot be ordered by EC50: ≤ 1000 nM for the first, ≤ 1000 nM for the second.

First: CC(C)S(=O)(=O)n1ccc(S(=O)(=O)n2nc(N3CCN(c4ccncc4)CC34CC4)c3c(Cl)cc(F)cc32)c1 [Compound 176, 4-chloro-6-fluoro-1-(1-isopropylsulfonylpyrrol-3-yl) sulfonyl-3-[7-(4-pyridyl)-4,7-diazaspiro [2.5]octan-4-yl]indazole]
Second: CC(C)S(=O)(=O)n1ccc(S(=O)(=O)n2nc(N3CCN(c4ccc(F)cn4)CC34CC4)c3c(F)cc(F)cc32)c1 [Compound 165, 4,6-difluoro-3-(7-(5-fluoropyridin-2-yl)-4,7-diazaspiro [2.5]octan-4-yl)-1-((1-(isopropylsulfonyl)-1H-pyrrol-3-yl)sulfonyl)-1H-indazole]
The EC50 of the first is higher: ≥ 10000 nM for the first, ≤ 1000 nM for the second.

`CC(F)(F)c1ccc(S(=O)(=O)n2nc(N3CCN(c4ccc(Cl)cc4F)CC34CC4)c3c(Cl)cccc32)cc1` [Compound 124, 4-chloro-3-(7-(4-chloro-2-fluorophenyl)-4,7-diazaspiro[2.5]octan-4-yl)-1-((4-(1,1-difluoroethyl)phenyl)sulfonyl)-1H-indazole] and `CC(F)(F)c1ccc(S(=O)(=O)n2nc(N3CCN(C(=O)F)CC34CC4)c3c(Cl)cccc32)cc1` [Compound 127, 4-(4-chloro-1-((4-(1,1-difluoroethyl)phenyl)sulfonyl)-1H-indazol-3-yl)-4,7-diazaspiro [2.5]octane-7-carbonyl fluoride] cannot be ordered by EC50: ≤ 1000 nM for the first, ≤ 1000 nM for the second.

`CC1COCC(C)N1c1nn(S(=O)(=O)c2ccn(S(=O)(=O)C(C)C)c2)c2cccc(Cl)c12` (stereo not drawn) [Compound 138, 4-[4-chloro-1-(1-isopropylsulfonylpyrrol-3-yl)sulfonyl-indazol-3-yl]-3,5-dimethyl-morpholine] and `CC(C)S(=O)(=O)c1ccc(S(=O)(=O)n2nc(N3CCC(Cl)(Cl)CC34CC4)c3c(Cl)cccc32)cc1` [Compound 54, 4-chloro-3-(7,7-dichloro-4-azaspiro [2.5]octan-4-yl)-1-(4-isopropylsulfonylphenyl) sulfonyl-indazole] cannot be ordered by EC50: ≤ 1000 nM for the first, ≤ 1000 nM for the second.

`O=S(=O)(c1ccn(S(=O)(=O)C2CC2)c1)n1nc(N2CCN(c3ncc(F)cc3F)CC23CC3)c2c(F)ccc(F)c21` [Compound 145, 1-(1-cyclopropylsulfonylpyrrol-3-yl) sulfonyl-3-[7-(3,5-difluoro-2-pyridyl)-4,7-diazaspiro [2.5]octan-4-yl]-4,7-difluoro-indazole] and `CC(C)S(=O)(=O)c1ccc(S(=O)(=O)n2nc(N3CCN(c4ncc(F)cc4F)CC34CC4)c3c(F)cc(F)cc32)cc1` [Compound 28, 3-[7-(3,5-difluoro-2-pyridyl)-4,7-diazaspiro[2.5]octan-4-yl]-4,6-difluoro-1-(4-isopropylsulfonylphenyl)sulfonyl-indazole] cannot be ordered by EC50: ≤ 1000 nM for the first, ≤ 1000 nM for the second.

`CC(C)S(=O)(=O)c1ccc(S(=O)(=O)n2nc(N3CCN(c4ccc(F)cn4)CC34CC4)c3c(F)cccc32)cc1` [Compound 25, 4-fluoro-3-[7-(5-fluoro-2-pyridyl)-4,7-diazaspiro [2.5]octan-4-yl]-1-(4-isopropylsulfonylphenyl) sulfonyl-indazole] and `CC(C)S(=O)(=O)c1ccc(S(=O)(=O)n2nc(N3CCN(c4ncc(F)cn4)C[C@H]3C(F)(F)F)c3c(F)cccc32)cc1` (single isomer, unassigned) [Compound 73] cannot be ordered by EC50: ≤ 1000 nM for the first, ≤ 1000 nM for the second.

`[2H]c1c(S(=O)(=O)n2nc(N3CCN(c4ncc(F)cn4)CC34CC4)c3c(Cl)cc(F)cc32)c([2H])n(S(=O)(=O)C(C)C)c1[2H]` [Compound 180, 4-chloro-6-fluoro-3-[7-(5-fluoropyrimidin-2-yl)-4,7-diazaspiro [2.5]octan-4-yl]-1-(2,4,5-trideuterio-1-isopropylsulfonyl-pyrrol-3-yl) sulfonyl-indazole] and `CC(C)S(=O)(=O)c1ccc(S(=O)(=O)n2nc(N3CCN(c4ncc(F)cc4F)CC34CC4)c3c(F)cc(F)cc32)s1` [Compound 40, 3-(7-(3,5-difluoropyridin-2-yl)-4,7-diazaspiro [2.5]octan-4-yl)-4,6-difluoro-1-((5-(isopropylsulfonyl)thiophen-2-yl)sulfonyl)-1H-indazole] cannot be ordered by EC50: ≤ 1000 nM for the first, ≤ 1000 nM for the second.
